Test results from PMC10762035, “Molecular basis of human trace amine-associated receptor 1 activation” (Nature Communications, 2024).
Residue numbers refer to the chain shown, from its start. Where “and” joins values, the source holds several entries; their conditions need not be identical. Identical values can stand only once. Like-named read-outs stand apart in the source and are kept apart here.

Assays:
Format in all cases: cell-based
[1] = biological target: T1, hTA1 T271A (Homo sapiens, UniProt Q96RJ0, T271A); experiment: GloSensor cAMP accumulation assay, T271A mutant
T1 construct: expressed in transfected cells; host or cells: HEK293T
T1 sequence (Q96RJ0 1-339 T271A): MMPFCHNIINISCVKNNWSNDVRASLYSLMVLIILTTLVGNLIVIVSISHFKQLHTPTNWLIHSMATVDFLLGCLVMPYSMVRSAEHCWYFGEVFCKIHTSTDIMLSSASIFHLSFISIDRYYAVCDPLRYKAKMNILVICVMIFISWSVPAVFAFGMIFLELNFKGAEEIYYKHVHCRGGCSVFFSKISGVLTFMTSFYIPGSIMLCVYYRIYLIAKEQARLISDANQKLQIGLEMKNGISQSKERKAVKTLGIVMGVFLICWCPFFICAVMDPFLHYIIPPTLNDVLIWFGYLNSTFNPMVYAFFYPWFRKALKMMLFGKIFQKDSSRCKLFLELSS

[2] = biological target: T2, hTA1 C13S (Homo sapiens, UniProt Q96RJ0, C13S); experiment: GloSensor cAMP accumulation assay, C13S mutant; details: C13S, n=2
T2 construct: expressed in transfected cells; host or cells: HEK293T
T2 sequence (Q96RJ0 1-339 C13S): T1 sequence (Q96RJ0 1-339 T271A) with C13S, A271T

[3] = biological target: T3, hTA1 S107C (Homo sapiens, UniProt Q96RJ0, S107C); experiment: GloSensor cAMP accumulation assay, S107C mutant; details: S107C;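 note: cells transiently co-expressing receptor and GloSensor biosensor, luminescence read after 30 min agonist exposure at room temperature, concentration-response fitted by nonlinear regression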
T3 construct: expressed in transfected cells; host or cells: HEK293T
T3 sequence (Q96RJ0 1-339 S107C): T1 sequence (Q96RJ0 1-339 T271A) with S107C, A271T

[4] = biological target: T4, hTA1 I290N (Homo sapiens, UniProt Q96RJ0, I290N); experiment: GloSensor cAMP accumulation assay, I290N mutant;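 note: cells transiently co-expressing hTA1 and the GloSensor cAMP biosensor, luminescence read 30 min after compound addition at room temperature, efficacy scaled to the maximal β-PEA response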
T4 construct: expressed in transfected cells; host or cells: HEK293T
T4 sequence (Q96RJ0 1-339 I290N): T1 sequence (Q96RJ0 1-339 T271A) with A271T, I290N

[5] = biological target: T5, hTA1 C178S (Homo sapiens, UniProt Q96RJ0, C178S); experiment: GloSensor cAMP accumulation assay, C178S mutant; details: for Normalized Luminescence Counts: C178S (N=2), log[Agonist]
T5 construct: expressed in transfected cells; host or cells: HEK293T
T5 sequence (Q96RJ0 1-339 C178S): T1 sequence (Q96RJ0 1-339 T271A) with C178S, A271T

## CN1CC2c3ccccc3Oc3ccc(Cl)cc3C2C1 (centres unmarked) [asenapine]
[1]; T271A
  reduction in potency vs wild type: roughly 4 fold
[1]; T271A, Mean of one experiment
  Emax values of Asenapine: 88.882
[1]; T271A, Mean of one experiment, read-out: Emax values of Asenapine
  Emax: 101%
[1]; T271A, Mean of one experiment, read-out: pEC50 values of Asenapine (converted)
  EC50: 1300 nM and 1020 nM
[1]; T271A, n=2, read-out: EC50
  EC50: 1150 nM
[1]; T271A, n=2, read-out: Span ± SEM (Emax normalized to β-PEA)
  Emax: 94.8 ± 5.91%
[1]; hTA1 T271A mutant vs WT average, Figure 6B, each line is one experiment (3 replicates)
  ΔEmax values (each mutant value - WT average), T271A, Mean: 11.9925 and 0.1748
[2]; read-out: EC50
  EC50: 321 nM
[2]; read-out: Span ± SEM (Emax normalized to β-PEA)
  Emax: 77.1 ± 4.84%
[3]; Asenapine, per experiment, 3 replicates
  Emax values, Mean: 91.6842 and 105.217
[3]; Asenapine, per experiment, 3 replicates, read-out: pEC50 values Mean (converted)
  EC50: 383 nM and 996 nM
[3]; n=2, read-out: EC50
  EC50: 618 nM
[3]; n=2, read-out: Span ± SEM (Emax normalized to β-PEA)
  Emax: 98.5 ± 6.76%
[4]; I290N
  reduction in potency vs wild type: 4 fold
[4]; I290N, Mean of one experiment
  Emax values of Asenapine: 77.7708
[4]; I290N, Mean of one experiment, read-out: Emax values of Asenapine
  Emax: 90.3%
[4]; I290N, Mean of one experiment, read-out: pEC50 values of Asenapine (converted)
  EC50: 1390 nM and 721 nM
[4]; I290N, n=2, read-out: EC50
  EC50: 1000 nM
[4]; I290N, n=2, read-out: Span ± SEM (Emax normalized to β-PEA)
  Emax: 84 ± 6.25%
[4]; I290N, n=2, read-out: pEC50 ± SEM (converted)
  EC50: 1000 nM
[4]; I290N, relative to β-PEA, read-out: Emax
  Emax: 84%
[4]; hTA1 I290N mutant vs WT average, Figure 6B, each line is one experiment (3 replicates)
  ΔEmax values (each mutant value - WT average), I290N, Mean: 1.57 and -10.9365
[5]; Asenapine, M -5
  Normalized Luminescence Counts: 75.4368 and 92.2127 and 77.6331 and 138.575 and 114.073 and 74.6126
[5]; Asenapine, M -5.522
  Normalized Luminescence Counts: 79.5957 and 78.8948 and 73.2872 and 121.163 and 122.988 and 72.6381
[5]; Asenapine, M -6
  Normalized Luminescence Counts: 71.3246 and 64.9226 and 70.9975 and 119.907 and 121.163 and 96.5417
[5]; Asenapine, M -6.522
  Normalized Luminescence Counts: 41.1373 and 42.2588 and 39.3616 and 54.3289 and 32.5494 and 43.2597
[5]; C178S, Asenapine
  ΔpEC50 values (each mutant value - WT average), Mean: -0.5777 and -0.5455
[5]; C178S, Asenapine, per experiment, 3 replicates
  Emax values, Mean: 87.2953 and 116.77
[5]; C178S, Asenapine, per experiment, 3 replicates, read-out: pEC50 values Mean (converted)
  EC50: 327 nM and 304 nM
[5]; C178S, n=2, read-out: EC50
  EC50: 315 nM
[5]; C178S, n=2, read-out: Span ± SEM (Emax normalized to β-PEA)
  Emax: 102%
[5]; C178S, relative to β-PEA, read-out: Emax
  Emax: 102%
